In brackets after ≈: the same amount, converted by molar mass.
Tested on: S. pneumoniae ATCC 49619
Assay: Minimal inhibitory concentration (MIC) by microdilution method (CLSI M7-A7)
Type: cell-based, Streptococcus pneumoniae
Conditions: Streptococcus pneumoniae, ATCC49619, cation-adjusted Mueller-Hinton Broth supplemented with 3% (v/v) lysed horse blood
Method in brief: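 For S. pneumoniae, cation-adjusted Mueller-Hinton broth carried 3% (v/v) lysed horse blood; MICs (mg/l) were read by CLSI M7-A7 microdilution.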

Row | Molecule | MIC
1 | CCNC(=O)Nc1cc2cccc(COc3ccncc3)c2cn1.Cl [Example 262, 1-ethyl-3-[8-(pyridin-4-yloxymethyl)-isoquinolin-3-yl]-urea hydrochloride] | 8 µg/mL
2 | CCNC(=O)Nc1cc2c(F)c(-c3cccc(NC(C)=O)c3)cc(-c3cnc(OC)nc3)c2cn1 [Example 114, N-{3-[3-(3-ethyl-ureido)-5-fluoro-8-(2-methoxy-pyrimidin-5-yl)-isoquinolin-6-yl]-phenyl}-acetamide] | 0.5 µg/mL (≈ 1.05 µM)
3 | CCNC(=O)Nc1cc2c(-c3ccncc3)ccc(Nc3cccc(C)n3)c2cn1 [Example 219, 1-ethyl-3-[8-(6-methyl-pyridin-2-ylamino)-5-pyridin-4-yl-isoquinolin-3-yl]-urea] | 0.25 µg/mL (≈ 0.627 µM)
4 | CCNC(=O)Nc1cc2cc(-c3cn[nH]c3)cc(C)c2cn1 [Example 28, 1-ethyl-3-[8-methyl-6-(1H-pyrazol-4-yl)-isoquinolin-3-yl]-urea] | 2 µg/mL (≈ 6.77 µM)
5 | CCNC(=O)Nc1cc2cccc(Nc3cccc(C(=O)N(C)C)c3)c2cn1.Cl [Example 199, 3-[3-(3-ethyl-ureido)-isoquinolin-8-ylamino]-N,N-dimethyl-benzamide hydrochloride] | 1 µg/mL
6 | CCNC(=O)Nc1cc2cccc(NCc3cccnc3)c2cn1 [Example 71, 1-ethyl-3-{8-[(pyridin-3-ylmethyl)-amino]-isoquinolin-3-yl}-urea] | 16 µg/mL (≈ 49.8 µM)
7 | CCNC(=O)Nc1cc2c(-c3ccc(CO)cc3)ccc(Nc3cccnc3)c2cn1 [Example 226, 1-ethyl-3-[5-(4-hydroxymethyl-phenyl)-8-(pyridin-3-ylamino)-isoquinolin-3-yl]-urea] | 1 µg/mL (≈ 2.42 µM)
8 | CCNC(=O)Nc1cc2cccc(NC(=O)c3ccc[nH]3)c2cn1.Cl [Example 182, 1H-pyrrole-2-carboxylic acid [3-(3-ethyl-ureido)-isoquinolin-8-yl]-amide hydrochloride] | 2 µg/mL
9 | CCNC(=O)Nc1cc2c(F)c(-c3cccc(NC(C)=O)c3)cc(Nc3cccnc3)c2cn1 [Example 234, N-{3-[3-(3-ethyl-ureido)-5-fluoro-8-(pyridin-3-ylamino)-isoquinolin-6-yl]phenyl}-acetamide] | 0.25 µg/mL (≈ 0.545 µM)
10 | CCNC(=O)Nc1cc2c(Br)ccc(OC)c2cn1 [Example 73, 1-(5-bromo-8-methoxy-isoquinolin-3-yl)-3-ethyl-urea] | 8 µg/mL (≈ 24.7 µM)
11 | CCNC(=O)Nc1cc2cc(-c3ccncc3Cl)cc(C)c2cn1 [Example 98, 1-[6-(3-chloro-pyridin-4-yl)-8-methyl-isoquinolin-3-yl]-3-ethyl-urea] | 4 µg/mL (≈ 11.7 µM)
12 | CCNC(=O)Nc1cc2cc(-c3ccc4c(c3)OCO4)cc(C)c2cn1 [Example 77, 1-(6-(benzo[1,3]dioxol-5-yl)-8-methyl-isoquinolin-3-yl)-3-ethyl-urea] | 1 µg/mL (≈ 2.86 µM)
13 | CCNC(=O)Nc1cc2c(-c3ccnc(C)c3)ccc(Nc3cccnc3)c2cn1 [Example 229, 1-ethyl-3-[5-(2-methyl-pyridin-4-yl)-8-(pyridin-3-ylamino)-isoquinolin-3-yl]-urea] | 0.25 µg/mL (≈ 0.627 µM)
14 | CCNC(=O)Nc1cc2cc(NCc3ccccc3)cc(Nc3cccnc3)c2cn1 [Example 239, 1-[6-benzylamino-8-(pyridin-3-ylamino)-isoquinolin-3-yl]-3-ethyl-urea] | 0.5 µg/mL (≈ 1.21 µM)
15 | CCNC(=O)Nc1cc2c(-c3cccc(NC(C)=O)c3)ccc(C)c2cn1 [Example 4, N-{3-[3-(3-ethyl-ureido)-8-methyl-isoquinolin-5-yl]-phenyl}-acetamide] | 8 µg/mL (≈ 22.1 µM)
16 | CCNC(=O)Nc1cc2cccc(Nc3ccc(C(=O)OC)c(C)c3)c2cn1 [Example 266, 4-[3-(3-ethyl-ureido)-isoquinolin-8-ylamino]-2-methyl-benzoic acid methyl ester] | 4 µg/mL (≈ 10.6 µM)
17 | CCNC(=O)Nc1cc2cc(NCc3ccc4cn[nH]c4c3)cc(C)c2cn1 [Example 184, 1-ethyl-3-{6-[(1H-indazol-6-ylmethyl)-amino]-8-methyl-isoquinolin-3-yl}-urea] | 4 µg/mL (≈ 10.7 µM)
18 | CCNC(=O)Nc1cc2cccc(Nc3cc(F)ccn3)c2cn1.Cl [Example 158, 1-ethyl-3-[8-(4-fluoro-pyridin-2-ylamino)-isoquinolin-3-yl]-urea hydrochloride] | 2 µg/mL
19 | CCNC(=O)Nc1cc2cccc(Nc3cccc(S(N)(=O)=O)c3)c2cn1 [Example 171, 3-[3-(3-ethyl-ureido)-isoquinolin-8-ylamino]-benzenesulfonamide] | 2 µg/mL (≈ 5.19 µM)
20 | CCNC(=O)Nc1cc2c(-c3ccncc3)ccc(OC)c2cn1 [Example 125, 1-ethyl-3-(8-methoxy-5-pyridin-4-yl-isoquinolin-3-yl)-urea] | 4 µg/mL (≈ 12.4 µM)
21 | CCNC(=O)Nc1cc2cccc(Nc3ccc(CC(=O)NC)cc3)c2cn1.Cl [Example 207, 2-{4-[3-(3-ethyl-ureido)-isoquinolin-8-ylamino]phenyl}-N-methyl-acetamide hydrochloride] | 2 µg/mL
22 | CCNC(=O)Nc1cc2cc(-c3cccc(C(C)=O)c3)cc(C)c2cn1 [Example 29, 1-[6-(3-acetyl-phenyl)-8-methyl-isoquinolin-3-yl]-3-ethyl-urea] | 0.5 µg/mL (≈ 1.44 µM)
23 | CCNC(=O)Nc1cc2c(NCC)ccc(C)c2cn1 [Example 63, 1-ethyl-3-(5-ethylamino-8-methyl-isoquinolin-3-yl)-urea] | 2 µg/mL (≈ 7.34 µM)

Row | Molecule | MIC
24 | CCNC(=O)Nc1cc2cc(NCc3ccc4ccn(C)c4c3)cc(C)c2cn1.Cl [Example 135, 1-ethyl-3-{8-methyl-6-[((1-methyl-1H-indol-6-yl)methyl)-amino]-isoquinolin-3-yl}-urea hydrochloride] | 16 µg/mL
25 | CCNC(=O)Nc1cc2cc(-c3cccc(CO)c3)cc(C)c2cn1 [Example 19, 1-ethyl-3-[6-(3-hydroxymethyl-phenyl)-8-methyl-isoquinolin-3-yl]-urea] | 1 µg/mL (≈ 2.98 µM)
26 | CCNC(=O)Nc1cc2cc(-c3ccc(CO)nc3)cc(C)c2cn1 [Example 101, 1-ethyl-3-[6-(6-hydroxymethyl-pyridin-3-yl)-8-methyl-isoquinolin-3-yl]-urea] | 1 µg/mL (≈ 2.97 µM)
27 | CCNC(=O)Nc1cc2cccc(Nc3cccc(C(=O)OC)c3)c2cn1 [Example 176, 3-[3-(3-ethyl-ureido)-isoquinolin-8-ylamino]-benzoic acid methyl ester] | 2 µg/mL (≈ 5.49 µM)
28 | CCNC(=O)Nc1cc2cccc(Nc3ccc(OC)c(C(N)=O)c3)c2cn1 [Example 242, 5-[3-(3-ethyl-ureido)-isoquinolin-8-ylamino]-2-methoxy-benzamide] | 0.5 µg/mL (≈ 1.32 µM)
29 | CCNC(=O)Nc1cc2cccc(Nc3cccc(O)c3)c2cn1 [Example 170, 1-ethyl-3-[8-(3-hydroxy-phenylamino)-isoquinolin-3-yl]-urea] | 2 µg/mL (≈ 6.2 µM)
30 | CCNC(=O)Nc1cc2cccc(Nc3ccncc3)c2cn1 [Example 153, 1-ethyl-3-[8-(pyridin-4-ylamino)-isoquinolin-3-yl]-urea] | 8 µg/mL (≈ 26 µM)
31 | CCNC(=O)Nc1cc2c(-c3ccncn3)ccc(Cl)c2cn1 [Example 286, 1-(8-chloro-5-pyrimidin-4-yl-isoquinolin-3-yl)-3-ethyl-urea] | 8 µg/mL (≈ 24.4 µM)
32 | CCNC(=O)Nc1cc2cc(-c3cncc(C)c3)cc(Nc3cccnc3)c2cn1 [Example 237, 1-ethyl-3-[6-(5-methyl-pyridin-3-yl)-8-(pyridin-3-ylamino)-isoquinolin-3-yl]-urea] | 0.25 µg/mL (≈ 0.627 µM)
33 | CCNC(=O)Nc1cc2cc(NCc3ccc(C(=O)O)cc3)cc(C)c2cn1 [Example 127, 4-{[3-(3-ethyl-ureido)-8-methyl-isoquinolin-6-ylamino]-methyl}-benzoic acid] | 16 µg/mL (≈ 42.3 µM)
34 | CCNC(=O)Nc1cc2c(-c3cccc4cnccc34)ccc(C)c2cn1 [Example 67, 1-ethyl-3-(8-methyl-[5,5′]biisoquinolinyl-3-yl)-urea] | 16 µg/mL (≈ 44.9 µM)
35 | CCNC(=O)Nc1cc2c(F)c(-c3cccc(NC(C)=O)c3)cc(C)c2cn1 [Example 142, N-{3-[3-(3-ethyl-ureido)-5-fluoro-8-methyl-isoquinolin-6-yl]-phenyl}-acetamide] | 0.25 µg/mL (≈ 0.657 µM)
36 | CCNC(=O)Nc1cc2cccc(Oc3cccnc3)c2cn1 [Example 147, 1-ethyl-3-[8-(pyridin-3-yloxy)-isoquinolin-3-yl]-urea] | 4 µg/mL (≈ 13 µM)
37 | CCNC(=O)Nc1cc2cc(-c3ccc(CC#N)cc3)cc(C)c2cn1 [Example 92, 1-[6-(4-(cyanomethyl)-phenyl)-8-methyl-isoquinolin-3-yl]-3-ethyl-urea] | 0.25 µg/mL (≈ 0.726 µM)
38 | CCNC(=O)Nc1cc2cccc(Nc3ccnc(OC)c3)c2cn1 [Example 180, 1-ethyl-3-[8-(2-methoxy-pyridin-4-ylamino)-isoquinolin-3-yl]-urea] | 4 µg/mL (≈ 11.9 µM)
39 | CCNC(=O)Nc1cc2cc(-c3cccc(NC(C)=O)c3)cc(C)c2cn1 [Example 37, N-{3-[3-(3-ethyl-ureido)-8-methyl-isoquinolin-6-yl]-phenyl}-acetamide] | 1 µg/mL (≈ 2.76 µM)
40 | C=Cc1cc(C)c2cnc(NC(=O)NCC)cc2c1 [Example 216, 1-ethyl-3-(8-methyl-6-vinyl-isoquinolin-3-yl)-urea] | 8 µg/mL (≈ 31.3 µM)
41 | CCNC(=O)Nc1cc2c(-c3ccc4nccn4c3)ccc(C)c2cn1 [Example 7, 1-ethyl-3-(5-imidazo[1,2-a]pyridin-6-yl-8-methyl-isoquinolin-3-yl)-urea] | 4 µg/mL (≈ 11.6 µM)
42 | CCNC(=O)Nc1cc2c(F)ccc(-c3cccnc3)c2cn1 [Example 215, 1-ethyl-3-(5-fluoro-8-pyridin-3-yl-isoquinolin-3-yl)-urea] | 16 µg/mL (≈ 51.6 µM)
43 | CCNC(=O)Nc1cc2cc(-c3cccc(C(N)=O)c3)cc(C)c2cn1 [Example 31, 3-[3-(3-ethyl-ureido)-8-methyl-isoquinolin-6-yl]-benzamide] | 1 µg/mL (≈ 2.87 µM)
44 | CCNC(=O)Nc1cc2cccc(Cn3ccnc3)c2cn1 [Example 299, 1-ethyl-3-(8-imidazol-1-ylmethyl-isoquinolin-3-yl)-urea] | 4 µg/mL (≈ 13.5 µM)
45 | CCNC(=O)Nc1cc2cccc(Nc3ccc(NC(C)=O)cc3)c2cn1 [Example 173, N-{4-[3-(3-ethyl-ureido)-isoquinolin-8-ylamino]-phenyl}-acetamide] | 2 µg/mL (≈ 5.5 µM)
46 | CCNC(=O)Nc1cc2cc(-c3cncc4ccccc34)cc(C)c2cn1 [Example 91, 1-ethyl-3-(8′-methyl-[4,6′]biisoquinolinyl-3′-yl)-urea] | 2 µg/mL (≈ 5.61 µM)

Same assay, conditions: cation-adjusted Mueller-Hinton Broth supplemented with 3% (v/v) lysed horse blood

Row | Molecule | MIC for S. pneumoniae ATCC 49619
47 | 1-(8-chloro-5-pyrimidin-4-yl-isoquinolin-3-yl)-3-ethyl-urea [Example 289] | 2 µg/mL
